Key:
cocklebur = experiment: Test B pre/postemergence cocklebur; format: in vivo, Xanthium strumarium; settings: for Cocklebur plant response rating: scale of 0 to 10 where 0 is no effect and 10 is complete control
Summary of the method: (§1)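 Test chemicals in a non-phytotoxic solvent mixture with surfactant were sprayed preemergence onto planted seeds and postemergence onto plants 2 to 18 cm tall (1- to 4-leaf stage). After twelve to sixteen days in a greenhouse, injury was visually rated against untreated controls from 0 (no effect) to 10 (complete control).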

smallflower flatsedge = experiment: Test B flood test smallflower flatsedge; format: in vivo, Cyperus difformis
Summary of the method: (§2)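 Each value is a visual injury score relative to controls, with 10 meaning complete control and 0 no effect. Evaluation took place twelve to sixteen days after the 2-leaf-stage plants were treated and kept in the greenhouse.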

rice = experiment: Test B flood test rice; format: in vivo, Oryza sativa
Summary of the method: as §2

wild oat = experiment: Test B pre/postemergence wild oat; format: in vivo, Avena fatua; settings: for Wild oats plant response rating: scale of 0 to 10 where 0 is no effect and 10 is complete control
Summary of the method: as §1

wheat = experiment: Test B pre/postemergence wheat; format: in vivo, Triticum aestivum; settings: for Wheat plant response rating: scale of 0 to 10 where 0 is no effect and 10 is complete control
Summary of the method: as §1

duck salad = experiment: Test B flood test duck salad; format: in vivo, Heteranthera limosa
Summary of the method: as §2

purple nutsedge = experiment: Test B pre/postemergence purple nutsedge; format: in vivo, Cyperus rotundus; settings: for Nutsedge plant response rating: scale of 0 to 10 where 0 is no effect and 10 is complete control
Summary of the method: as §1

surinam grass = experiment: Test B pre/postemergence surinam grass; format: in vivo, Brachiaria decumbens
Summary of the method: as §1

pigweed = experiment: Test B pre/postemergence pigweed; format: in vivo, Amaranthus retroflexus; settings: for Redroot pigweed plant response rating: scale of 0 to 10 where 0 is no effect and 10 is complete control
Summary of the method: as §1

crabgrass = experiment: Test B pre/postemergence crabgrass; format: in vivo, Digitaria sanguinalis; settings: for Crabgrass plant response rating: scale of 0 to 10 where 0 is no effect and 10 is complete control
Summary of the method: as §1

corn = experiment: Test B pre/postemergence corn; format: in vivo, Zea mays; settings: for Corn plant response rating: scale of 0 to 10 where 0 is no effect and 10 is complete control
Summary of the method: as §1

morningglory = experiment: Test B pre/postemergence morningglory; format: in vivo, Ipomoea hederacea; settings: for Morningglory plant response rating: scale of 0 to 10 where 0 is no effect and 10 is complete control
Summary of the method: as §1

bamyardgrass = experiment: Test B flood test barnyardgrass; format: in vivo, Echinochloa crus-galli
Summary of the method: as §2

giant foxtail = experiment: Test B pre/postemergence giant foxtail; format: in vivo, Setaria faberii; settings: for Giant foxtail plant response rating: scale of 0 to 10 where 0 is no effect and 10 is complete control
Summary of the method: as §1

sugar beet = experiment: Test B pre/postemergence sugar beet; format: in vivo, Beta vulgaris; settings: for Sugarbeets plant response rating: scale of 0 to 10 where 0 is no effect and 10 is complete control
Summary of the method: as §1

rape = experiment: Test B pre/postemergence rape; format: in vivo, Brassica napus; settings: for Rape plant response rating: scale of 0 to 10 where 0 is no effect and 10 is complete control
Summary of the method: as §1

[1] = Postemergence, Rate 125 g/ha, scale 0 to 10, 0 is no effect, 10 is complete control
[2] = Preemergence, Rate 62 g/ha, scale 0 to 10 (0 no effect, 10 complete control)
[3] = Rate 500 g/ha, Postemergence, scale 0 to 10, 0 no effect, 10 complete control
[4] = Postemergence (flood test), Rate 125 g/ha, scale 0 to 10, 0 is no effect, 10 is complete control
[5] = Rate 62 g/ha, Postemergence (flood test species), scale of 0 to 10 where 0 is no effect and 10 is complete control
[6] = Rate 500 g/ha, listed under Postemergence (flood test species), scale 0 to 10, 0 no effect, 10 complete control

Cc1cccc(C(C)(C)C)c1-n1c(=O)on(C(=O)N(c2ccc(F)cc2)C(C)C)c1=O [Compound 359]
1: Plant response rating, Cocklebur (cocklebur; [3])
0: Plant response rating, Cocklebur (cocklebur; [1]) | Plant response rating, Cocklebur (cocklebur; [2]) | Cocklebur plant response rating (0 to 10 scale) (cocklebur; Preemergence, Rate 125 g/ha) | Cocklebur plant response rating (cocklebur; Preemergence, Rate 500 g/ha) | Cocklebur plant response rating (cocklebur; Rate 62 g/ha, Postemergence) | Plant response rating, S. Flatsedge (smallflower flatsedge; [4]) | S. Flatsedge plant response rating (smallflower flatsedge; [5]) | Plant response rating, S. Flatsedge (smallflower flatsedge; [6]) | Plant response rating, Rice (rice; [4]) | Rice plant response rating (rice; [5]) | Plant response rating, Rice (rice; [6]) | Plant response rating, Wild oats (wild oat; [1]) | Plant response rating, Wild oats (wild oat; [2]) | Wild oats plant response rating (0 to 10 scale) (wild oat; Preemergence, Rate 125 g/ha) | Wild oats plant response rating (wild oat; Preemergence, Rate 250 g/ha) | Wild oats plant response rating (wild oat; Preemergence, Rate 500 g/ha) | Wild oats plant response rating (wild oat; Rate 62 g/ha, Postemergence) | Plant response rating, Wild oats (wild oat; [3]) | Plant response rating, Wheat (wheat; [1]) | Plant response rating, Wheat (wheat; [2]) | Wheat plant response rating (0 to 10 scale) (wheat; Preemergence, Rate 125 g/ha) | Wheat plant response rating (wheat; Preemergence, Rate 250 g/ha) | Wheat plant response rating (wheat; Preemergence, Rate 500 g/ha) | Wheat plant response rating (wheat; Rate 62 g/ha, Postemergence) | Plant response rating, Ducksalad (duck salad; [4]) | Ducksalad plant response rating (duck salad; [5]) | Plant response rating, Ducksalad (duck salad; [6]) | Plant response rating, Nutsedge (purple nutsedge; [1]) | Plant response rating, Nutsedge (purple nutsedge; [2]) | Nutsedge plant response rating (0 to 10 scale) (purple nutsedge; Preemergence, Rate 125 g/ha) | Nutsedge plant response rating (purple nutsedge; Preemergence, Rate 250 g/ha) | Nutsedge plant response rating (purple nutsedge; Preemergence, Rate 500 g/ha) | Nutsedge plant response rating (purple nutsedge; Rate 62 g/ha, Postemergence) | Plant response rating, Nutsedge (purple nutsedge; [3]) | Plant response rating, B. signalgrass (surinam grass; [1]) | Plant response rating, B. signalgrass (surinam grass; [2]) | B. signalgrass plant response rating (0 to 10 scale, 0 is no effect, 10 is complete control) (surinam grass; Preemergence, Rate 125 g/ha) | B. signalgrass plant response rating (surinam grass; Preemergence, Rate 250 g/ha, scale of 0 to 10 where 0 is no effect and 10 is complete control) | B. signalgrass plant response rating (surinam grass; Preemergence, Rate 500 g/ha, scale of 0 to 10 where 0 is no effect and 10 is complete control) | B. signalgrass plant response rating (surinam grass; Rate 62 g/ha, Postemergence, scale of 0 to 10 where 0 is no effect and 10 is complete control) | Plant response rating, B. signalgrass (surinam grass; Rate 250 g/ha, Postemergence, scale of 0 to 10 where 0 is no effect and 10 is complete control) | Plant response rating, B. signalgrass (surinam grass; [3]) | Plant response rating, Redroot pigweed (pigweed; [1]) | Plant response rating, Redroot pigweed (pigweed; [2]) | Redroot pigweed plant response rating (0 to 10 scale) (pigweed; Preemergence, Rate 125 g/ha) | Redroot pigweed plant response rating (pigweed; Preemergence, Rate 250 g/ha) | Redroot pigweed plant response rating (pigweed; Preemergence, Rate 500 g/ha) | Redroot pigweed plant response rating (pigweed; Rate 62 g/ha, Postemergence) | Plant response rating, Redroot pigweed (pigweed; [3]) | Plant response rating, Crabgrass (crabgrass; [1]) | Plant response rating, Crabgrass (crabgrass; [2]) | Crabgrass plant response rating (0 to 10 scale) (crabgrass; Preemergence, Rate 125 g/ha) | Crabgrass plant response rating (crabgrass; Preemergence, Rate 250 g/ha) | Crabgrass plant response rating (crabgrass; Preemergence, Rate 500 g/ha) | Crabgrass plant response rating (crabgrass; Rate 62 g/ha, Postemergence) | Plant response rating, Crabgrass (crabgrass; [3]) | Plant response rating, Corn (corn; [1]) | Plant response rating, Corn (corn; [2]) | Corn plant response rating (0 to 10 scale) (corn; Preemergence, Rate 125 g/ha) | Corn plant response rating (corn; Preemergence, Rate 250 g/ha) | Corn plant response rating (corn; Preemergence, Rate 500 g/ha) | Corn plant response rating (corn; Rate 62 g/ha, Postemergence) | Plant response rating, Corn (corn; [3]) | Plant response rating, Morningglory (morningglory; [1]) | Plant response rating, Morningglory (morningglory; [2]) | Morningglory plant response rating (0 to 10 scale) (morningglory; Preemergence, Rate 125 g/ha) | Morningglory plant response rating (morningglory; Preemergence, Rate 250 g/ha) | Morningglory plant response rating (morningglory; Preemergence, Rate 500 g/ha) | Morningglory plant response rating (morningglory; Rate 62 g/ha, Postemergence) | Plant response rating, Morningglory (morningglory; [3]) | Plant response rating, Barnyardgrass (bamyardgrass; [4]) | Barnyardgrass plant response rating (bamyardgrass; [5]) | Plant response rating, Barnyardgrass (bamyardgrass; Rate 250 g/ha, Postemergence (flood test species), scale of 0 to 10 where 0 is no effect and 10 is complete control) | Plant response rating, Barnyardgrass (bamyardgrass; [6]) | Plant response rating, Giant foxtail (giant foxtail; [1]) | Plant response rating, Giant foxtail (giant foxtail; [2]) | Giant foxtail plant response rating (0 to 10 scale) (giant foxtail; Preemergence, Rate 125 g/ha) | Giant foxtail plant response rating (giant foxtail; Preemergence, Rate 250 g/ha) | Giant foxtail plant response rating (giant foxtail; Preemergence, Rate 500 g/ha) | Giant foxtail plant response rating (giant foxtail; Rate 62 g/ha, Postemergence) | Plant response rating, Giant foxtail (giant foxtail; [3]) | Plant response rating, Sugarbeets (sugar beet; [1]) | Plant response rating, Sugarbeets (sugar beet; [2]) | Sugarbeets plant response rating (0 to 10 scale) (sugar beet; Preemergence, Rate 125 g/ha) | Sugarbeets plant response rating (sugar beet; Preemergence, Rate 250 g/ha) | Sugarbeets plant response rating (sugar beet; Preemergence, Rate 500 g/ha) | Sugarbeets plant response rating (sugar beet; Rate 62 g/ha, Postemergence) | Plant response rating, Sugarbeets (sugar beet; [3]) | Plant response rating, Rape (rape; [1]) | Plant response rating, Rape (rape; [2]) | Rape plant response rating (0 to 10 scale) (rape; Preemergence, Rate 125 g/ha) | Rape plant response rating (rape; Preemergence, Rate 250 g/ha) | Rape plant response rating (rape; Preemergence, Rate 500 g/ha) | Rape plant response rating (rape; Rate 62 g/ha, Postemergence) | Plant response rating, Rape (rape; [3])
2: Plant response rating, Wheat (wheat; [3])
